The test deals with depression with gastro-intestinal over-growth with Aspergillus and Candida yeasts. The experiment in a line: Antidepressive effectiveness (proband tests), multi-step method. Format: in vivo, human. Details: key: − negative; + positive. The conditions noted are these: Level 0 antidepressants (Seroxat); Level 1 1 g/day oral 4 weeks; Level 2 2 g daily oral 4 weeks after level 1. The source says: Antidepressive effectiveness (2 proband tests/female 1/male 1)
Diseases such as depressions can often be treated in an exclusively symptomatic way with psychopharmaceuticals. However, mycoses/mycotoxins may be the initial cause of such diseases. The object was to eliminate the gastro-intestinal over-growth with Aspergillus and Candida yeasts using BHQ (see also Patent Application EP 00 124 497), and to apply BHQ R6 regenerative agent in a multi-step method.
Level 0: Depression conservatively treated with antidepressants (Seroxat®). The general state of health was subjectively reported as non-satisfactory; in part, depression attacks occurred at different times of day (e.g., in the evening), so that the dosage was increased. The microbiological detection of Candida spec. and Aspergillus spec. was positive. The probands complained about a high weight increase (“spongy feeling”).
Level 1: For 4 weeks, BHQ “flavor-containing medicament” was administered orally once a day for the decontamination of the mycosis and/or any mycotoxins present (1 g/day).
Level 2: As a next step after level 1, BHQ R6 regenerative agent (2 g daily) was administered orally for 4 weeks.

We go through one compound from patent US20040076614A1, “Symbiotic regenerative agent” (priority 2001, published 2004).

As for `Fc1ccc([C@@H]2CCNC[C@H]2COc2ccc3c(c2)OCO3)cc1` [Seroxat], the General health entry is recorded as “−”, the Weight increase entry is on record as “+”, the “microbiological gastro-intestinal detection: Candida spec. Aspergillus spec.” value is listed as “+” and the part. status entry is on record as “+”.
